# Results published in ChEMBL document CHEMBL1151757, “Synthesis, radiosynthesis, and biological evaluation of fluorine-18-labeled 2beta-carbo(fluoroalkoxy)-3beta-(3'-((Z)-2-haloethenyl)phenyl)nortropanes: candidate radioligands for in vivo imaging of the serotonin transporter with positron emission tomography” (J Med Chem, 2008).
# How the values were obtained:
# [1] = Drug uptake in anesthetized cynomolgus monkey brain occipital lobe after 205 mins postinjection; format: ADME, organism-based, Macaca fascicularis; conditions: in vivo
# Midbrain [2] = test: Drug uptake in anesthetized cynomolgus monkey brain midbrain after 95 mins postinjection; format: ADME, organism-based, Macaca fascicularis; set-up: unit not given here; conditions: in vivo
# Medulla [3] = test: Drug uptake in anesthetized cynomolgus monkey brain medulla after 55 mins postinjection; format: ADME, organism-based, Macaca fascicularis; conditions: in vivo
# Pons [4] = test: Drug uptake in anesthetized cynomolgus monkey brain pons after 45 mins postinjection; format: ADME, organism-based, Macaca fascicularis; conditions: in vivo, 0.75 h
# [5] = Ratio of drug uptake in occipital lobe to cerebellum in anesthetized cynomolgus monkey after 4.5 mins postinjection; format: ADME, organism-based, Macaca fascicularis; conditions: in vivo, 0.075 h
# Caudate [6] = test: Drug uptake in anesthetized cynomolgus monkey brain caudate after 4.5 mins postinjection; format: ADME, organism-based, Macaca fascicularis, Caudate nucleus; conditions: in vivo, 0.075 h
# [7] = Drug uptake in anesthetized cynomolgus monkey brain frontal lobe after 195 mins postinjection; format: ADME, organism-based, Macaca fascicularis; conditions: in vivo, 3.25 h
# Thalamus [8] = test: Drug uptake in anesthetized cynomolgus monkey brain thalamus after 235 mins postinjection; format: ADME, organism-based, Macaca fascicularis; set-up: unit not given here; conditions: in vivo
# Thalamus [9] = test: Drug uptake in anesthetized cynomolgus monkey brain thalamus after 22.5 mins postinjection; format: ADME, organism-based, Macaca fascicularis; set-up: unit not given here; conditions: in vivo, 0.375 h
# Putamen [10] = test: Drug uptake in anesthetized cynomolgus monkey brain putamen after 1.5 mins postinjection; format: ADME, organism-based, Macaca fascicularis; conditions: in vivo, 0.025 h
# Caudate [11] = test: Drug uptake in anesthetized cynomolgus monkey brain caudate after 27.5 mins postinjection; format: ADME, organism-based, Macaca fascicularis, Caudate nucleus; conditions: in vivo
# Midbrain [12] = test: Drug uptake in anesthetized cynomolgus monkey brain midbrain after 135 mins postinjection; format: ADME, organism-based, Macaca fascicularis; conditions: in vivo, 2.25 h
# Pons [13] = test: Drug uptake in anesthetized cynomolgus monkey brain pons after 135 mins postinjection; format: ADME, organism-based, Macaca fascicularis; conditions: in vivo, 2.25 h
# Midbrain [14] = test: Drug uptake in anesthetized cynomolgus monkey brain midbrain after 15.5 mins postinjection; format: ADME, organism-based, Macaca fascicularis; set-up: unit not given here; conditions: in vivo
# Midbrain [15] = test: Drug uptake in anesthetized cynomolgus monkey brain midbrain after 215 mins postinjection; format: ADME, organism-based, Macaca fascicularis; conditions: in vivo
# Thalamus [16] = test: Drug uptake in anesthetized cynomolgus monkey brain thalamus after 145 mins postinjection; format: ADME, organism-based, Macaca fascicularis; set-up: unit not given here; conditions: in vivo
# Putamen [17] = test: Drug uptake in anesthetized cynomolgus monkey brain putamen after 12.5 mins postinjection; format: ADME, organism-based, Macaca fascicularis; set-up: unit not given here; conditions: in vivo
# [18] = Drug uptake in anesthetized cynomolgus monkey brain frontal lobe after 45 mins postinjection; format: ADME, organism-based, Macaca fascicularis; conditions: in vivo, 0.75 h
# Midbrain [19] = test: Drug uptake in anesthetized cynomolgus monkey brain midbrain after 105 mins postinjection; format: ADME, organism-based, Macaca fascicularis; set-up: unit not given here; conditions: in vivo, 1.75 h
# Thalamus [20] = test: Drug uptake in anesthetized cynomolgus monkey brain thalamus after 75 mins postinjection; format: ADME, organism-based, Macaca fascicularis; set-up: unit not given here; conditions: in vivo, 1.25 h
# [21] = Ratio of drug uptake in frontal lobe to cerebellum in anesthetized cynomolgus monkey after 75 mins postinjection; format: ADME, organism-based, Macaca fascicularis; conditions: in vivo, 1.25 h
# [22] = Ratio of drug uptake in caudate to cerebellum in anesthetized cynomolgus monkey after 135 mins postinjection; format: ADME, organism-based, Macaca fascicularis; conditions: in vivo, 2.25 h
# Pons [23] = test: Drug uptake in anesthetized cynomolgus monkey brain pons after 125 mins postinjection; format: ADME, organism-based, Macaca fascicularis; conditions: in vivo
# Putamen [24] = test: Drug uptake in anesthetized cynomolgus monkey brain putamen after 75 mins postinjection; format: ADME, organism-based, Macaca fascicularis; set-up: unit not given here; conditions: in vivo, 1.25 h
# [25] = Ratio of drug uptake in pons to cerebellum in anesthetized cynomolgus monkey after 1.5 mins postinjection; format: ADME, organism-based, Macaca fascicularis; conditions: in vivo, 0.025 h
# Pons [26] = test: Drug uptake in anesthetized cynomolgus monkey brain pons after 235 mins postinjection; format: ADME, organism-based, Macaca fascicularis; conditions: in vivo
# Putamen [27] = test: Drug uptake in anesthetized cynomolgus monkey brain putamen after 175 mins postinjection; format: ADME, organism-based, Macaca fascicularis; conditions: in vivo
# [28] = Drug uptake in anesthetized cynomolgus monkey brain cerebellum after 65 mins postinjection; format: ADME, organism-based, Macaca fascicularis; conditions: in vivo
# Caudate [29] = test: Drug uptake in anesthetized cynomolgus monkey brain caudate after 125 mins postinjection; format: ADME, organism-based, Macaca fascicularis, Caudate nucleus; conditions: in vivo
# [30] = Drug uptake in anesthetized cynomolgus monkey brain cerebellum after 175 mins postinjection; format: ADME, organism-based, Macaca fascicularis; conditions: in vivo
# Putamen [31] = test: Drug uptake in anesthetized cynomolgus monkey brain putamen after 2.5 mins postinjection; format: ADME, organism-based, Macaca fascicularis; conditions: in vivo
# [32] = Ratio of drug uptake in medulla to cerebellum in anesthetized cynomolgus monkey after 185 mins postinjection; format: ADME, organism-based, Macaca fascicularis; conditions: in vivo
# [33] = Ratio of drug uptake in medulla to cerebellum in anesthetized cynomolgus monkey after 155 mins postinjection; format: ADME, organism-based, Macaca fascicularis; conditions: in vivo
# [34] = Ratio of drug uptake in frontal lobe to cerebellum in anesthetized cynomolgus monkey after 3.5 mins postinjection; format: ADME, organism-based, Macaca fascicularis; conditions: in vivo
# [35] = Ratio of drug uptake in thalamus to cerebellum in anesthetized cynomolgus monkey after 9.5 mins postinjection; format: ADME, organism-based, Macaca fascicularis; conditions: in vivo
# Caudate [36] = test: Drug uptake in anesthetized cynomolgus monkey brain caudate after 35 mins postinjection; format: ADME, organism-based, Macaca fascicularis, Caudate nucleus; conditions: in vivo
# Medulla [37] = test: Drug uptake in anesthetized cynomolgus monkey brain medulla after 145 mins postinjection; format: ADME, organism-based, Macaca fascicularis; conditions: in vivo
# [38] = Drug uptake in anesthetized cynomolgus monkey brain occipital lobe after 215 mins postinjection; format: ADME, organism-based, Macaca fascicularis; conditions: in vivo
# Pons [39] = test: Drug uptake in anesthetized cynomolgus monkey brain pons after 75 mins postinjection; format: ADME, organism-based, Macaca fascicularis; conditions: in vivo, 1.25 h
# Midbrain [40] = test: Drug uptake in anesthetized cynomolgus monkey brain midbrain after 35 mins postinjection; format: ADME, organism-based, Macaca fascicularis; set-up: unit not given here; conditions: in vivo
# [41] = Drug uptake in anesthetized cynomolgus monkey brain occipital lobe after 18.5 mins postinjection; format: ADME, organism-based, Macaca fascicularis; conditions: in vivo
# Putamen [42] = test: Drug uptake in anesthetized cynomolgus monkey brain putamen after 225 mins postinjection; format: ADME, organism-based, Macaca fascicularis; conditions: in vivo, 3.75 h
# Caudate [43] = test: Drug uptake in anesthetized cynomolgus monkey brain caudate after 75 mins postinjection; format: ADME, organism-based, Macaca fascicularis, Caudate nucleus; conditions: in vivo, 1.25 h
# [44] = Ratio of drug uptake in putamen to cerebellum in anesthetized cynomolgus monkey after 155 mins postinjection; format: ADME, organism-based, Macaca fascicularis; conditions: in vivo
# [45] = Ratio of drug uptake in medulla to cerebellum in anesthetized cynomolgus monkey after 85 mins postinjection; format: ADME, organism-based, Macaca fascicularis; conditions: in vivo
# Putamen [46] = test: Drug uptake in anesthetized cynomolgus monkey brain putamen after 65 mins postinjection; format: ADME, organism-based, Macaca fascicularis; set-up: unit not given here; conditions: in vivo
# [47] = Ratio of drug uptake in medulla to cerebellum in anesthetized cynomolgus monkey after 12.5 mins postinjection; format: ADME, organism-based, Macaca fascicularis; conditions: in vivo
# [48] = Octanol-water partition coefficient, log P at pH 7.4 by shake-flask method; format: physicochemical
smiles,measurement,setting,value
O=C(OCC[18F])C1C2CCC(CC1c1ccc(/C=C\I)cc1)N2 (configuration not stated),Drug uptake,[1],1.73
same,Drug uptake,Midbrain [2],4.6
same,Drug uptake,Medulla [3],3.78
same,Drug uptake,Pons [4],3.09
same,Ratio,[5],0.8
same,Drug uptake,Caudate [6],0.78
same,Drug uptake,[7],1.7
same,Drug uptake,Thalamus [8],3.34
same,Drug uptake,Thalamus [9],2.9
same,Drug uptake,Putamen [10],0.11
same,Drug uptake,Caudate [11],2.17
same,Drug uptake,Midbrain [12],4.7
same,Drug uptake,Pons [13],3.6
same,Drug uptake,Midbrain [14],2.58
same,Drug uptake,Midbrain [15],4.63
same,Drug uptake,Thalamus [16],3.98
same,Drug uptake,Putamen [17],2.59
same,Drug uptake,[18],1.95
same,Drug uptake,Midbrain [19],4.55
same,Drug uptake,Thalamus [20],4.02
same,Ratio,[21],0.9
same,Ratio,[22],1.8
same,Drug uptake,Pons [23],3.56
same,Drug uptake,Putamen [24],4.28
same,Ratio,[25],0.6
same,Drug uptake,Pons [26],3.06
same,Drug uptake,Putamen [27],3.1
same,Drug uptake,[28],2.44
same,Drug uptake,Caudate [29],3.09
same,Drug uptake,[30],1.3
same,Drug uptake,Putamen [31],0.45
same,Ratio,[32],2.5
same,Ratio,[33],2.5
same,Ratio,[34],0.5
same,Ratio,[35],1
same,Drug uptake,Caudate [36],2.33
same,Drug uptake,Medulla [37],3.61
same,Drug uptake,[38],1.68
same,Drug uptake,Pons [39],3.39
same,Drug uptake,Midbrain [40],3.51
same,Drug uptake,[41],1.81
same,Drug uptake,Putamen [42],3.79
same,Drug uptake,Caudate [43],2.98
same,Ratio,[44],2.8
same,Ratio,[45],1.8
O=C(OCC[18F])C1C2CCC(CC1c1cccc(/C=C\I)c1)N2 (configuration not stated),Drug uptake,Midbrain [2],4.55
same,Drug uptake,Medulla [3],3.96
same,Drug uptake,Pons [4],3.34
same,Ratio,[5],0.6
same,Drug uptake,Caudate [6],1.23
same,Drug uptake,Thalamus [8],2.2
same,Drug uptake,Thalamus [9],3.88
same,Drug uptake,Putamen [10],0.1
same,Drug uptake,Caudate [11],3.39
same,Drug uptake,Midbrain [12],3.97
same,Drug uptake,Pons [13],2.65
same,Drug uptake,Midbrain [14],4.07
same,Drug uptake,Midbrain [15],3.12
same,Drug uptake,Thalamus [16],3.16
same,Drug uptake,Putamen [17],3.33
same,Drug uptake,[18],2.95
same,Drug uptake,Midbrain [19],4.34
same,Drug uptake,Thalamus [20],4.16
same,Ratio,[21],0.9
same,Drug uptake,Pons [23],2.76
same,Drug uptake,Putamen [24],4.28
same,Drug uptake,Pons [26],1.97
same,Drug uptake,Putamen [27],2.93
same,Drug uptake,[28],3.23
same,Drug uptake,Caudate [29],3
same,Drug uptake,[30],1.57
same,Drug uptake,Putamen [46],4.36
same,Drug uptake,Putamen [31],0.44
same,Ratio,[34],0.6
same,Ratio,[35],0.9
same,Drug uptake,Caudate [36],3.54
same,Drug uptake,Medulla [37],3.04
same,Drug uptake,[38],1.28
same,Drug uptake,Pons [39],3.21
same,Drug uptake,Midbrain [40],4.85
same,Ratio,[47],0.9
same,Drug uptake,[41],2.84
same,Drug uptake,Putamen [42],2.44
same,Drug uptake,Caudate [43],3.62
same,Ratio,[44],1.8
same,Ratio,[45],1.3
same,logD,[48],1.69
